Reference: patent US20210251972A1, “Methods Of Treating Fabry Disease” (Amicus Therapeutics, Inc., priority 2020, published 2021)

B1: ERT: enzyme replacement therapy: infusion of purified α-Gal A, e.g. agalsidase alfa (Replagal) or agalsidase beta (Fabrazyme) (protein, UniProt P06280 32-429, looked up)
Alpha-galactosidase A: LDNGLARTPTMGWLHWERFMCNLDCQEEPDSCISEKLFMEMAELMVSEGWKDAGYEYLCIDDCWMAPQRDSEGRLQADPQRFPHGIRQLANYVHSKGLKLGIYADVGNKTCAGFPGSFGYYDIDAQTFADWGVDLLKFDGCYCDSLENLADGYKHMSLALNRTGRSIVYSCEWPLYMWPFQKPNYTEIRQYCNHWRNFADIDDSWKSIKSILDWTSFNQERIVDVAGPGGWNDPDMLVIGNFGLSWNQQVTQMALWAIMAAPLFMSNDLRHISPQAKALLQDKDVIAINQDPLGKQGYQLRQGDNFEVWERPLSGLAWAVAMINRQEIGGPRSYTIAVASLGKGVACNPACFITQLLPVKRKLGFYEWTSRLRSHINPTGTVLLQLENTMQMSLKDLL

Test system: ERT-experienced patients with Fabry disease and migalastat-amenable GLA variants
Assay: Composite clinical outcomes (CCOs) in ATTRACT (AT1001-012) and open-label extension studies AT1001-041/AT1001-042, Phase 3
Format: in vivo, human
Details: for Incidence rate of composite clinical outcomes (CCOs): all patients; for Median time to first CCO: overall
From the text: Patients initiated ERT ≥12 months prior to the study.
AT1001-041 (NCT01458119) was a long-term OLE study evaluating the long-term safety and efficacy of migalastat in patients completing a previous migalastat study.
AT1001-042 (NCT02194985) is an ongoing, long-term OLE study evaluating the long-term safety and efficacy of migalastat in patients who participated in AT1001-012 or AT1001-041.
CCOs were defined prior to the planned analysis and included: • Renal events (a decrease in eGFRCKD-EPI≥15 mL/min/1.73 m^2, with the decreased eGFR<90 mL/min/1.73 m^2 relative to baseline; or an increase in 24-hour urine protein≥33%, with elevated protein≥300 mg relative to baseline) • Cardiac events (myocardial infarction; unstable cardiac angina; new symptomatic arrhythmia requiring antiarrhythmic medication, direct current cardioversion, pacemaker, or defibrillator implantation; congestive heart failure [New York Association Class III or IV]) • Cerebrovascular events (stroke or transient ischemic attack) • Death
Exposure to migalastat was calculated from the day of the first dose to the last available data point or the date of discontinuation; for this analysis, the exposure to ERT comprised the duration of participation in the ATTRACT study, and lasted up to 18 months.
Incidence rates were calculated for renal, cerebrovascular, and cardiac events separately and for the composite clinical outcomes. All individual events were accounted for when calculating incidence. Median times to the first clinical event were calculated based on the same data used for the incidence rates.
A direct comparison between migalastat and ERT was based on the 18 months exposure (the ERT data were from first 18 months in ATTRACT only); in addition, the incidence of CCOs for the whole follow-up period was calculated for migalastat (ATTRACT and subsequent OLE studies)
The long-term incidence for migalastat was calculated based on all available data for migalastat.

Molecule | Incidence rate of composite clinical outcomes (CCOs) (first 18 months of treatment) | Incidence rate, cardiac event (females, at 18 months) | Incidence rate, cerebrovascular event (females, at 18 months) | Incidence rate, composite clinical outcome (females, at 18 months) | Incidence rate, death (females, at 18 months) | Incidence rate, renal event (females, at 18 months) | Incidence rate, cardiac event (males, at 18 months) | Incidence rate, cerebrovascular event (males, at 18 months) | Incidence rate, composite clinical outcome (males, at 18 months) | Incidence rate, death (males, at 18 months) | Incidence rate, renal event (males, at 18 months) | further results
Cl.OC[C@H]1NC[C@H](O)[C@@H](O)[C@H]1O [Migalastat, (2R,3S,4R,5S)-2-(hydroxymethyl) piperdine-3,4,5-triol] | 0.41 per patient·year | 0.05 per patient·year | 0 per patient·year | 0.34 per patient·year | 0 per patient·year | 0.29 per patient·year | 0.07 per patient·year | 0 per patient·year | 0.50 per patient·year | 0 per patient·year | 0.43 per patient·year | Incidence rate of composite clinical outcomes (CCOs) (long-term follow-up, at the data cutoff (median 4.8 years)): 0.45 per patient·year; Median time to first composite clinical outcome (females, 0-4.8 years): 1.15 Years; Incidence rate, cardiac event (females, at 4.8 years): 0.02 per patient·year; Incidence rate, cerebrovascular event (females, at 4.8 years): 0.02 per patient·year; Incidence rate, death (females, at 4.8 years): 0 per patient·year; Incidence rate, renal event (females, at 4.8 years): 0.33 per patient·year; Incidence rate, composite clinical outcome (females, at 4.8 years (data cutoff)): 0.37 per patient·year; Median time to first composite clinical outcome (males, 0-4.8 years): 1.30 Years; Incidence rate, cardiac event (males, at 4.8 years): 0.04 per patient·year; Incidence rate, cerebrovascular event (males, at 4.8 years): 0.01 per patient·year; Incidence rate, death (males, at 4.8 years): 0 per patient·year; Incidence rate, renal event (males, at 4.8 years): 0.51 per patient·year; Incidence rate, composite clinical outcome (males, at 4.8 years (data cutoff)): 0.56 per patient·year; Median time to first CCO (migalastat exposure (0-4.8 years)): 1.17 years
B1 | 0.85 per patient·year | 0.42 per patient·year | 0 per patient·year | 0.98 per patient·year | 0 per patient·year | 0.56 per patient·year | 0 per patient·year | 0.10 per patient·year | 0.68 per patient·year | 0 per patient·year | 0.58 per patient·year | Median time to first composite clinical outcome (females, 0-18 months): 0.35 Years; Median time to first composite clinical outcome (males, 0-18 months): 0.25 Years; Median time to first CCO (ERT exposure (0-18 months)): 0.25 years
